From patent publication US10435399B2, “HDAC6 inhibitory heterocyclic compound” (TAKEDA PHARMACEUTICAL COMPANY LIMITED, priority 2017, dated 2019)

Biological target: T1, HDAC6 enzyme (Homo sapiens, UniProt Q9UBN7)
T1 construct: transducing full length HDAC6 gene into Sf-9 insect cells; GST; purchased SignalChem; host or cells: Sf-9 insect cells
T1 sequence (Q9UBN7 1-1215): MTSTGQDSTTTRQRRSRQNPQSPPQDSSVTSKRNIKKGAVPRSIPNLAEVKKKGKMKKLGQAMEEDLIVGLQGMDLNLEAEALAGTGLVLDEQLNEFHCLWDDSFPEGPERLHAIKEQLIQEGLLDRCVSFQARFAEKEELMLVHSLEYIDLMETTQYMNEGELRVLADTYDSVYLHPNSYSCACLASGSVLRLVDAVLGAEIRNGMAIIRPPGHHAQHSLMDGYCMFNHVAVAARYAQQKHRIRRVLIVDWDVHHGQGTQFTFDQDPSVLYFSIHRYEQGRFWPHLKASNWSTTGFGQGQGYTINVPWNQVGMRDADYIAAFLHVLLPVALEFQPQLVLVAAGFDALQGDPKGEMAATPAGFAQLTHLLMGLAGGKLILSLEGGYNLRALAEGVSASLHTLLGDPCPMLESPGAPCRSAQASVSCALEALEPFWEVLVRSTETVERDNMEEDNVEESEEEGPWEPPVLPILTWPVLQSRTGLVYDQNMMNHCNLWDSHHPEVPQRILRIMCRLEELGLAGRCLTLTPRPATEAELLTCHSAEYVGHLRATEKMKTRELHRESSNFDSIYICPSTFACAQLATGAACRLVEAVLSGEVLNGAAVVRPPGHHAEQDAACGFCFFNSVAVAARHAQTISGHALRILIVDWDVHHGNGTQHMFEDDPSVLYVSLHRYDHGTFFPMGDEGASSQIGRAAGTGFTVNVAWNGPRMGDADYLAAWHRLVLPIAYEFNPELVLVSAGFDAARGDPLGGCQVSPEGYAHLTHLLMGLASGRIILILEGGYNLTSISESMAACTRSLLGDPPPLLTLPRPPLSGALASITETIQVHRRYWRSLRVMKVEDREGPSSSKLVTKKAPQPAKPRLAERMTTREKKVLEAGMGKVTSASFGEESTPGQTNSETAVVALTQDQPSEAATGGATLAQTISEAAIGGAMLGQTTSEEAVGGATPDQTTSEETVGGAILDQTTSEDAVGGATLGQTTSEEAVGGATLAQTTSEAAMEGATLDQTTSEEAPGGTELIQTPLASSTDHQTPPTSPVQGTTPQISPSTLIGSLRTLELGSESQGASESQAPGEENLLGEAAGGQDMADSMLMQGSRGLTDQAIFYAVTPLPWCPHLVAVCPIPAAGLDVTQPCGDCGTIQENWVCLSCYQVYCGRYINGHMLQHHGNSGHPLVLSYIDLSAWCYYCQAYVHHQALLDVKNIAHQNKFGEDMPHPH
Assay: HDAC6 enzyme inhibitory activity (HDAC-Glo I/II Assay kit)
Type: biochemical
Settings: 10 μM; wells without enzyme = 100% inhibition
Summary of the method: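 Sf-9-derived GST-purified full-length HDAC6 + cpd, 60 min RT, 24 mM Tris pH 7.5/0.6 mM glutathione/0.01% Tween-20; add HDAC-Glo substrate-developer, 20 min RT; luminescence. No-enzyme = 100% inhibition.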

Compound	HDAC6 inhibitory rate (%) (10 μM)
O=C1c2cc(-c3nnc(C(F)F)o3)ccc2CN1N1CCCC1c1ccccn1 (stereo not drawn) [Example 596, 6-(5-(difluoromethyl)-1,3,4-oxadiazol-2-yl)-2-(2-(pyridin-2-yl)pyrrolidin-1-yl)isoindolin-1-one (optical isomer)]	100
O=C1c2cc(-c3nnc(C(F)F)o3)ccc2CN1N1CCCC1c1ccccn1 (stereo not drawn) [Example 597, 6-(5-(difluoromethyl)-1,3,4-oxadiazol-2-yl)-2-(2-(pyridin-2-yl)pyrrolidin-1-yl)isoindolin-1-one (optical isomer)]	99
O=C1c2cc(-c3nnc(C(F)F)o3)ccc2CN1N1CCC(F)(F)CC1c1ccc(F)cn1 (stereo not drawn) [Example 610, 2-(4,4-Difluoro-2-(5-fluoropyridin-2-yl)piperidin-1-yl)-6-(5-(difluoromethyl)-1,3,4-oxadiazol-2-yl)isoindolin-1-one (Optical Isomer)]	99
O=C1c2cc(-c3nnc(C(F)F)o3)ccc2CN1N1CCC(F)(F)CC1c1ccc(F)cn1 (stereo not drawn) [Example 612, 2-(4,4-Difluoro-2-(5-fluoropyridin-2-yl)piperidin-1-yl)-6-(5-(difluoromethyl)-1,3,4-oxadiazol-2-yl)isoindolin-1-one (Optical Isomer)]	99
Cc1ccc(C2CC(F)(F)CCN2N2Cc3ccc(-c4nnc(C(F)F)o4)cc3C2=O)nc1 (stereo not drawn) [Example 614, 6-(5-(difluoromethyl)-1,3,4-oxadiazol-2-yl)-2-(4,4-difluoro-2-(5-methylpyridin-2-yl)piperidin-1-yl)isoindolin-1-one (optical isomer)]	99

Same assay, conditions: 10 μM; wells without enzyme = 100% inhibition; read-out: HDAC6 inhibitory rate (%) (10 μM)

Compound	inhibition at 10 µM [%]
Cn1cc(C(=O)c2ccccc2)c(N2Cc3ccc(-c4nnc(C(F)F)o4)cc3C2=O)n1 [Example 592, 2-(4-benzoyl-1-methyl-1H-pyrazol-3-yl)-6-(5-(difluoromethyl)-1,3,4-oxadiazol-2-yl)isoindolin-1-one]	99
O=C1c2cc(-c3nnc(C(F)F)o3)cnc2CN1[C@@H]1CCCC[C@H]1Oc1ccccn1 [Example 593, 3-(5-(difluoromethyl)-1,3,4-oxadiazol-2-yl)-6-((1R,2R)-2-(pyridin-2-yloxy)cyclohexyl)-6,7-dihydro-5H-pyrrolo[3,4-b]pyridin-5-one]	100
O=C1c2cc(-c3nnc(C(F)F)o3)ccc2CN1N1CCCCC1c1ccc(F)cc1 (stereo not shown) [Example 594, 6-(5-(difluoromethyl)-1,3,4-oxadiazol-2-yl)-2-(2-(4-fluorophenyl)piperidin-1-yl)isoindolin-1-one]	101
O=C1c2cc(-c3nnc(C(F)F)o3)ccc2CN1N1CCC(F)(F)CC1c1ccc(F)cn1 (stereo not shown) [Example 595, 2-(4,4-difluoro-2-(5-fluoropyridin-2-yl)piperidin-1-yl)-6-(5-(difluoromethyl)-1,3,4-oxadiazol-2-yl)isoindolin-1-one]	100
O=C1c2cc(-c3nnc(C(F)F)o3)cnc2CN1[C@@H]1CCCC(F)(F)[C@H]1NC(=O)C(F)(F)C(F)(F)F [Example 599, N-((1S,6R)-6-(3-(5-(difluoromethyl)-1,3,4-oxadiazol-2-yl)-5-oxo-5,7-dihydro-6H-pyrrolo[3,4-b]pyridin-6-yl)-2,2-difluorocyclohexyl)-2,2,3,3,3-pentafluoropropanamide]	99
Cc1ccc(C2CC(F)(F)CCN2N2Cc3ccc(-c4nnc(C(F)F)o4)cc3C2=O)nc1 (stereo not shown) [Example 600, 6-(5-(difluoromethyl)-1,3,4-oxadiazol-2-yl)-2-(4,4-difluoro-2-(5-methylpyridin-2-yl)piperidin-1-yl)isoindolin-1-one]	100
O=C1c2cc(-c3nnc(C(F)F)o3)cnc2CN1[C@@H]1CCCC(F)(F)[C@H]1NC(=O)C(F)(F)C(F)F [Example 601, N-((1S,6R)-6-(3-(5-(difluoromethyl)-1,3,4-oxadiazol-2-yl)-5-oxo-5,7-dihydro-6H-pyrrolo[3,4-b]pyridin-6-yl)-2,2-difluorocyclohexyl)-2,2,3,3-tetrafluoropropanamide]	99
O=C1c2cc(-c3nnc(C(F)F)o3)ccc2CN1N1CCCCC1c1cncc(F)c1 (stereo not shown) [Example 602, 6-(5-(difluoromethyl)-1,3,4-oxadiazol-2-yl)-2-(2-(5-fluoropyridin-3-yl)piperidin-1-yl)isoindolin-1-one]	101
O=C1c2cc(-c3nnc(C(F)F)o3)ccc2CN1N1CCCCC1c1cccc(F)c1 (stereo not shown) [Example 603, 6-(5-(difluoromethyl)-1,3,4-oxadiazol-2-yl)-2-(2-(3-fluorophenyl)piperidin-1-yl)isoindolin-1-one]	100
O=C(OCc1ccccc1)C1CC(F)(F)CCN1N1Cc2ccc(-c3nnc(C(F)F)o3)cc2C1=O (stereo not shown) [Example 604, benzyl 1-(6-(5-(difluoromethyl)-1,3,4-oxadiazol-2-yl)-1-oxo-1,3-dihydro-2H-isoindol-2-yl)-4,4-difluoropiperidine-2-carboxylate]	98
CC(C)(C(=O)N[C@H]1[C@H](N2Cc3ncc(-c4nnc(C(F)F)o4)cc3C2=O)CCCC1(F)F)C(F)(F)F [Example 605, N-((1S,6R)-6-(3-(5-(difluoromethyl)-1,3,4-oxadiazol-2-yl)-5-oxo-5,7-dihydro-6H-pyrrolo[3,4-b]pyridin-6-yl)-2,2-difluorocyclohexyl)-3,3,3-trifluoro-2,2-dimethylpropanamide]	99
O=C1c2cc(-c3nnc(C(F)F)o3)cnc2CN1C1CCCC(F)(F)[C@H]1NC(=O)C1(C(F)(F)F)CC1 (stereo partly shown) [Example 606]	99
CC(C)(CF)OC(=O)N[C@H]1[C@H](N2Cc3ncc(-c4nnc(C(F)F)o4)cc3C2=O)CCCC1(F)F [Example 607, 1-fluoro-2-methylpropan-2-yl ((1S,6R)-6-(3-(5-(difluoromethyl)-1,3,4-oxadiazol-2-yl)-5-oxo-5,7-dihydro-6H-pyrrolo[3,4-b]pyridin-6-yl)2,2-difluorocyclohexyl)carbamate]	99
CC(C)(OC(=O)N[C@H]1[C@H](N2Cc3ncc(-c4nnc(C(F)F)o4)cc3C2=O)CCCC1(F)F)C(F)F [Example 608, 1,1-difluoro-2-methylpropan-2-yl ((1S,6R)-6-(3-(5-(difluoromethyl)-1,3,4-oxadiazol-2-yl)-5-oxo-5,7-dihydro-6H-pyrrolo[3,4-b]pyridin-6-yl)-2,2-difluorocyclohexyl)carbamate]	99
Cn1cc(C2CCCCN2N2Cc3ccc(-c4nnc(C(F)F)o4)cc3C2=O)cn1 (stereo not shown) [Example 609, 6-(5-(difluoromethyl)-1,3,4-oxadiazol-2-yl)-2-(2-(1-methyl-1H-pyrazol-4-yl)piperidin-1-yl)isoindolin-1-one]	99
CC(=O)N1CCC(C2CCCCN2N2Cc3ccc(-c4nnc(C(F)F)o4)cc3C2=O)CC1 (stereo not shown) [Example 611, 2-(1′-acetyl-2,4′-bipiperidin-1-yl)-6-(5-(difluoromethyl)-1,3,4-oxadiazol-2-yl)isoindolin-1-one]	101
O=C(N[C@H]1[C@H](N2Cc3ncc(-c4nnc(C(F)F)o4)cc3C2=O)CCCC1(F)F)C(C(F)(F)F)C(F)(F)F [Example 613, N-((1S,6R)-6-(3-(5-(difluoromethyl)-1,3,4-oxadiazol-2-yl)-5-oxo-5,7-dihydro-6H-pyrrolo[3,4-b]pyridin-6-yl)-2,2-difluorocyclohexyl)-3,3,3-trifluoro-2-(trifluoromethyl)propanamide]	99
